Like-named read-outs stand apart in the source and are kept apart here.
How the values were obtained:
Format in all cases: cell-based
oregano clonal line OM-8 = settings: 30 days
Method: (§1) Samples of Pseudomonas-treated and untreated control shoots from each line were assayed for rosmarinic acid content and proline content. Rosmarinic acid was extracted from 50 mg of fresh shoot tissue using 2 ml of 50% (v/v) methanol and incubating for 1 hour at 55° C. One ml of the methanol extract was diluted 1:18 and the absorbance of the diluted extract was measured at 333 nm in a Genesys spectrophotometer (Spectronic Instruments, Rochester, N.Y.). The concentration of RA in the extract was calculated using an extinction coefficient of ε333=19,000 τmol^−1cm^−1. Values for the concentration of RA for each treatment/clonal line shown in the Tables and Figures of this application are the average of at least 5 separate extracts. Total rosmarinic acid content was expressed as % g/g fresh weight (FW) of tissue.
(§2) Oregano lines 0-1, 0-4, and 0-5 of Examples 1 and 2 were tested again for cross-tolerance to A2C. Clonal lines OM-1, and OM-8 of Example 1 were also tested for cross-tolerance to A2C. Line OM-8 was previously shown to be sensitive to Pseudomonas strain F, whereas line OM-1 was tolerant of Pseudomonas strain F. Lines were maintained on MS medium containing BAP as described in Example 1.
(§3) Individual shoot tissue propagules of each clonal line were transferred to half strength hormone-free MS medium supplement with A2C. RA content and morphological abnormalities were determined as described in Example 1.

oregano clonal line OM-1 = settings: 30 days, ± SD
Method: as §1, §2, §3

thyme clonal line M-3 = assay: Morphological abnormalities / tolerance of cultured shoots, thyme line M-3; settings: thyme line M-3, 200 μM A2C
Method: Pseudomonas tolerance of Pseudomonas-treated shoots was determined by visual observation with a stereomicroscope (Olympus-SZ40, Tokyo, Japan) at a magnification of 34X. Cultured shoots were evaluated for morphological abnormalities, including malformation, necrosis, and chlorophyll deficiency. The response of individual tissue propagules to Pseudomonas contact was similar within each line, i.e., there was little or no variation among tissue propagules within each line.
(§4) Individual shoot propagules of each clonal line were transferred to half-strength hormone-free MS media supplemented with A2C and cultured for 30 to 45 days. RA content and morphological abnormalities were determined at the end of the culture period as described in Example 1.

thyme clonal line T-16G = assay: RA content of shoot propagules, thyme clonal line T-16G; settings: thyme T-16G, 30 to 45 days, ± SD
Method: as §1
Three clonal thyme lines and five rosemary clonal lines were isolated and maintained in culture as described in U.S. application Ser. No. 08/771,241, filed Dec. 20, 1996 and incorporated herein by reference.
as §4

O=C(O)C1CCN1 (stereo not shown) [A2C, azetidine-2-carboxylic acid]
RA Levels (oregano clonal line OM-8; line OM-8, A2C 100 μM, ± SD): 2.9 ± 0.3 mg/g FW | RA Levels (oregano clonal line OM-8; line OM-8, A2C 200 μM): inhibited | RA Levels (oregano clonal line OM-1; line OM-1, A2C 100 μM): 7.1 ± 0.7 mg/g FW | RA Levels (oregano clonal line OM-1; line OM-1, A2C 200 μM): 6.4 ± 1.2 mg/g FW | survival of line in culture (thyme clonal line M-3): killed | RA Levels (thyme clonal line T-16G; A2C 100 μM): 3.1 ± 0.4 mg/g FW | RA Levels (thyme clonal line T-16G; A2C 200 μM): 3.7 ± 0.4 mg/g FW

From patent US20010012631A1, “Plant clonal lines and plants having elevated secondary metabolite levels” (University of Massachusetts Medical Center, a Massachusetts …, priority 1997, published 2001)
